Laboratory results taken from ChEMBL document CHEMBL1159359, “A new phytotoxic nonenolide from Phoma herbarum” (J Nat Prod, 2003).
pIC50: −log10 of the molar value. Calls of active or inactive are those of the source. The calls are words filed in the database; no cut-off is given here.

Key:
[1] = tested on: Amaranthus hypochondriacus; experiment: Phytotoxicity against Amaranthus hypochondriacus seedlings assessed as inhibition of radical growth at 28 degC by petri dish assay; assay type: functional, organism-based
Calmodulin (Bos taurus) = Calmodulin (Bos taurus) (UniProt P62157); experiment: Binding affinity to bovine brain calmodulin assessed as decrease in electrophoretic mobility at 0.033 ug/ml for 1.5 hrs by SDS-PAGE in presence of Ca2+ ions
[2] = Inhibition of bovine brain calmodulin-dependent cyclic nucleotide phosphodiesterase after 30 min; set-up: species or system Bos taurus

Row | Compound | pIC50 [1] | Activity (Calmodulin (Bos taurus)) | pIC50 [2]
1 | CCC[C@@H]1C[C@@H](O)/C=C/CCCC(=O)O1 [HERBARUMIN III] | 4.70 | Active | –
2 | CCC[C@H]1OC(=O)[C@H](O)CC/C=C/[C@H](O)[C@@H]1O [HERBARUMIN II] | – | Active | 5.18
3 | O=C(O)COc1ccc(Cl)cc1Cl [2,4-DICHLOROPHENOXYACETIC ACID] | 3.70 | – | –
4 | CN(C)CCCN1c2ccccc2Sc2ccc(Cl)cc21 [CHLORPROMAZINE] | – | – | 5.01
5 | CCC[C@H]1OC(=O)CCC/C=C/[C@H](O)[C@@H]1O [HERBARUMIN I] | – | Active | 4.85
